System: Akkermansia muciniphila
Experiment: Effects of prebiotic compositions with different components on growth of Akkermansia muciniphila (Example 2)
Type: cell-based
From the text: The xylooligosaccharide used was purchased from Shandong Longlive Bio-Technology Co., Ltd. The lactitol used was purchased from Welltech Biotechnology Co., Ltd. The inulin used was purchased from Cosucra. The fructooligosaccharide used was purchased from Meiji. The grape ferment used was the grape ferment prepared in Example 1. The liquid medium used was tryptone soy broth (TSB; hereinafter referred to as TSB medium) with 5% sheep blood (purchased from BD).
The groups were divided into blank group, 5 experimental groups (experimental groups A-E) and 5 control groups (control groups A-E), as shown in Table 1.
The experimental medium used in control groups A-E included 94% TSB medium, 5% sheep blood and 1% single-component prebiotic compositions A-E, respectively; and the single-component prebiotic compositions A-E were xylooligosaccharide, lactitol, inulin, fructooligosaccharide and grape ferment, respectively. […]
1% activated Akkermansia muciniphila was respectively added to a 15 mL test tube containing 5 mL of medium of each group, and subjected to anaerobic culture at 37° C. for 48 hours. After 48 hours of culture, 100 μL of bacterial suspension was respectively taken from the test tube of each group, added to the solid TSB medium containing 5% sheep blood, and subjected to anaerobic culture at 37° C. for 72 hours, and then, the bacterial count of each group was calculated. […]

OC[C@@H](O)[C@@H](O[C@@H]1O[C@H](CO)[C@H](O)[C@H](O)[C@H]1O)[C@H](O)[C@@H](O)CO [control group B, lactitol]
bacterial count (1% prebiotic composition in 94% TSB medium + 5% sheep blood, anaerobic culture at 37° C. for 48 hours, then plated 72 hours, blank group 6.50 log CFU): 6.67 log CFU | effect on bacterial count/growth of Akkermansia muciniphila as compared with the blank group (1% prebiotic composition in medium, FIG. 1): increased the bacterial count of Akkermansia muciniphila
